Measurements taken from PubChem BioAssay (NCI).
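Method: 48-hour compound exposure of cells in 96-well plates, five concentrations, linear interpolation of endpoints. Abbreviation: GI50, concentration required for 50% inhibition of growth. At the TGI there is no net growth.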

Experiments:
Assay in all cases: NCI tumour cell line growth inhibition, 48 h
786-0 renal = test system: 786-0 renal
A498 renal = test system: A498 renal
A549 NSCLC = test system: A549 NSCLC
ACHN renal = test system: ACHN renal
BT-549 breast = test system: BT-549 breast
CAKI-1 renal = test system: CAKI-1 renal
CCRF-CEM leukemia = test system: CCRF-CEM leukemia
COLO 205 colon = test system: COLO 205 colon
DU-145 prostate = test system: DU-145 prostate
EKVX NSCLC = test system: EKVX NSCLC
HCC-2998 colon = test system: HCC-2998 colon
HCT-116 colon = test system: HCT-116 colon
HCT-15 colon = test system: HCT-15 colon
HL-60(TB) leukemia = test system: HL-60(TB) leukemia
HOP-62 NSCLC = test system: HOP-62 NSCLC
HOP-92 NSCLC = test system: HOP-92 NSCLC
HS 578T breast = test system: HS 578T breast
HT29 colon = test system: HT29 colon
IGROV1 ovarian = test system: IGROV1 ovarian
K-562 leukemia = test system: K-562 leukemia
KM12 colon = test system: KM12 colon
M14 melanoma = test system: M14 melanoma
MALME-3M melanoma = test system: MALME-3M melanoma
MCF7 breast = test system: MCF7 breast
MDA-MB-231 breast = test system: MDA-MB-231 breast
MDA-MB-435 = test system: MDA-MB-435
MOLT-4 leukemia = test system: MOLT-4 leukemia
NCI-H226 lung = test system: NCI-H226 lung
NCI-H23 lung = test system: NCI-H23 lung
NCI-H460 lung = test system: NCI-H460 lung
NCI-H522 lung = test system: NCI-H522 lung
NCI/ADR-RES ovarian = test system: NCI/ADR-RES ovarian
OVCAR-3 ovarian = test system: OVCAR-3 ovarian
OVCAR-4 ovarian = test system: OVCAR-4 ovarian
OVCAR-5 ovarian = test system: OVCAR-5 ovarian
OVCAR-8 ovarian = test system: OVCAR-8 ovarian
PC-3 prostate = test system: PC-3 prostate
RPMI-8226 leukemia = test system: RPMI-8226 leukemia
RXF 393 renal = test system: RXF 393 renal
SF-268 CNS = test system: SF-268 CNS
SF-295 CNS = test system: SF-295 CNS
SF-539 CNS = test system: SF-539 CNS
SK-MEL-2 melanoma = test system: SK-MEL-2 melanoma
SK-MEL-28 melanoma = test system: SK-MEL-28 melanoma
SK-MEL-5 melanoma = test system: SK-MEL-5 melanoma
SK-OV-3 ovarian = test system: SK-OV-3 ovarian
SN12C renal = test system: SN12C renal
SNB-19 CNS = test system: SNB-19 CNS
SNB-75 CNS = test system: SNB-75 CNS
SR leukemia = test system: SR leukemia
SW-620 colon = test system: SW-620 colon
T-47D breast = test system: T-47D breast
TK-10 renal = test system: TK-10 renal
U251 CNS = test system: U251 CNS
UACC-257 melanoma = test system: UACC-257 melanoma
UACC-62 melanoma = test system: UACC-62 melanoma
UO-31 renal = test system: UO-31 renal

NS(=O)(=O)c1ccc(Nc2nc(Nc3ccccc3)nc(-n3nc(-c4ccccc4)cc3-c3ccccc3)n2)cc1
GI50 (786-0 renal): 3.09 µM | TGI (786-0 renal): 10.6 µM | GI50 (A498 renal): 3.34 µM | TGI (A498 renal): 8.08 µM | GI50 (A549 NSCLC): 3.18 µM | TGI (A549 NSCLC): 17.9 µM | GI50 (ACHN renal): 2.59 µM | TGI (ACHN renal): 9.95 µM | GI50 (BT-549 breast): 2.24 µM | TGI (BT-549 breast): 5.54 µM | GI50 (CAKI-1 renal): 2.45 µM | TGI (CAKI-1 renal): 9.55 µM | GI50 (CCRF-CEM leukemia): 2.94 µM | TGI (CCRF-CEM leukemia): > 100 µM | GI50 (COLO 205 colon): 1.78 µM | TGI (COLO 205 colon): 3.27 µM | GI50 (DU-145 prostate): 3.16 µM | TGI (DU-145 prostate): 13 µM | GI50 (EKVX NSCLC): 2.96 µM | TGI (EKVX NSCLC): 17.4 µM | GI50 (HCC-2998 colon): 2.98 µM | TGI (HCC-2998 colon): 6.84 µM | GI50 (HCT-116 colon): 1.74 µM | TGI (HCT-116 colon): 3.39 µM | GI50 (HCT-15 colon): 3.08 µM | TGI (HCT-15 colon): 11.2 µM | GI50 (HL-60(TB) leukemia): 2.24 µM | TGI (HL-60(TB) leukemia): 8.26 µM | GI50 (HOP-62 NSCLC): 3.29 µM | TGI (HOP-62 NSCLC): 12.4 µM | GI50 (HOP-92 NSCLC): 2.16 µM | TGI (HOP-92 NSCLC): 6.18 µM | GI50 (HS 578T breast): 4.31 µM | TGI (HS 578T breast): 62.7 µM | GI50 (HT29 colon): 2.38 µM | TGI (HT29 colon): 5.48 µM | GI50 (IGROV1 ovarian): 2.72 µM | TGI (IGROV1 ovarian): 11.4 µM | GI50 (K-562 leukemia): 2.62 µM | TGI (K-562 leukemia): 10.8 µM | GI50 (KM12 colon): 2.77 µM | TGI (KM12 colon): 8.2 µM | GI50 (M14 melanoma): 3.22 µM | TGI (M14 melanoma): 12.5 µM | GI50 (MALME-3M melanoma): 2.43 µM | TGI (MALME-3M melanoma): 7.09 µM | GI50 (MCF7 breast): 2.27 µM | TGI (MCF7 breast): 6.61 µM | GI50 (MDA-MB-231 breast): 1.81 µM | TGI (MDA-MB-231 breast): 3.85 µM | GI50 (MDA-MB-435): 3.32 µM | TGI (MDA-MB-435): 12.9 µM | GI50 (MOLT-4 leukemia): 1.51 µM | TGI (MOLT-4 leukemia): 6.47 µM | GI50 (NCI-H226 lung): 2.52 µM | TGI (NCI-H226 lung): 11 µM | GI50 (NCI-H23 lung): 2.84 µM | TGI (NCI-H23 lung): 9.12 µM | GI50 (NCI-H460 lung): 2.07 µM | TGI (NCI-H460 lung): 4.66 µM | GI50 (NCI-H522 lung): 2.29 µM | TGI (NCI-H522 lung): 7.39 µM | GI50 (NCI/ADR-RES ovarian): 2.93 µM | TGI (NCI/ADR-RES ovarian): 11 µM | GI50 (OVCAR-3 ovarian): 2.24 µM | TGI (OVCAR-3 ovarian): 4.97 µM | GI50 (OVCAR-4 ovarian): 2.77 µM | TGI (OVCAR-4 ovarian): 9.32 µM | GI50 (OVCAR-5 ovarian): 3.34 µM | TGI (OVCAR-5 ovarian): 14.3 µM | GI50 (OVCAR-8 ovarian): 3.22 µM | TGI (OVCAR-8 ovarian): 16 µM | GI50 (PC-3 prostate): 2.37 µM | TGI (PC-3 prostate): 7.89 µM | GI50 (RPMI-8226 leukemia): 2.49 µM | TGI (RPMI-8226 leukemia): 8.69 µM | GI50 (RXF 393 renal): 1.99 µM | TGI (RXF 393 renal): 5.23 µM | GI50 (SF-268 CNS): 3.97 µM | TGI (SF-268 CNS): > 100 µM | GI50 (SF-295 CNS): 3.02 µM | TGI (SF-295 CNS): 10.5 µM | GI50 (SF-539 CNS): 2.66 µM | TGI (SF-539 CNS): 10.3 µM | GI50 (SK-MEL-2 melanoma): 2.39 µM | TGI (SK-MEL-2 melanoma): 6.95 µM | GI50 (SK-MEL-28 melanoma): 3.87 µM | TGI (SK-MEL-28 melanoma): 16.9 µM | GI50 (SK-MEL-5 melanoma): 2.33 µM | TGI (SK-MEL-5 melanoma): 5.54 µM | GI50 (SK-OV-3 ovarian): 5.37 µM | TGI (SK-OV-3 ovarian): > 100 µM | GI50 (SN12C renal): 1.47 µM | TGI (SN12C renal): 2.88 µM | GI50 (SNB-19 CNS): 3.43 µM | TGI (SNB-19 CNS): 20.9 µM | GI50 (SNB-75 CNS): 4.61 µM | TGI (SNB-75 CNS): > 100 µM | GI50 (SR leukemia): 1.94 µM | TGI (SR leukemia): 5.94 µM | GI50 (SW-620 colon): 3.52 µM | TGI (SW-620 colon): 32.1 µM | GI50 (T-47D breast): 2.96 µM | TGI (T-47D breast): 13.2 µM | GI50 (TK-10 renal): 3.87 µM | TGI (TK-10 renal): 8.93 µM | GI50 (U251 CNS): 2.91 µM | TGI (U251 CNS): 10.3 µM | GI50 (UACC-257 melanoma): 3.26 µM | TGI (UACC-257 melanoma): 23.3 µM | GI50 (UACC-62 melanoma): 1.81 µM | TGI (UACC-62 melanoma): 3.76 µM | GI50 (UO-31 renal): 2.38 µM | TGI (UO-31 renal): 10 µM
